Reference: paper PMC9502272, “A Metabolomics Approach for Predicting OATP1B-Type Transporter-Mediated Drug–Drug Interaction Liabilities” (Pharmaceutics, 2022)

Biological target: T1, Oatp1b2 (Mus musculus, UniProt Q9JJL3)
T1 sequence (Q9JJL3 1-689): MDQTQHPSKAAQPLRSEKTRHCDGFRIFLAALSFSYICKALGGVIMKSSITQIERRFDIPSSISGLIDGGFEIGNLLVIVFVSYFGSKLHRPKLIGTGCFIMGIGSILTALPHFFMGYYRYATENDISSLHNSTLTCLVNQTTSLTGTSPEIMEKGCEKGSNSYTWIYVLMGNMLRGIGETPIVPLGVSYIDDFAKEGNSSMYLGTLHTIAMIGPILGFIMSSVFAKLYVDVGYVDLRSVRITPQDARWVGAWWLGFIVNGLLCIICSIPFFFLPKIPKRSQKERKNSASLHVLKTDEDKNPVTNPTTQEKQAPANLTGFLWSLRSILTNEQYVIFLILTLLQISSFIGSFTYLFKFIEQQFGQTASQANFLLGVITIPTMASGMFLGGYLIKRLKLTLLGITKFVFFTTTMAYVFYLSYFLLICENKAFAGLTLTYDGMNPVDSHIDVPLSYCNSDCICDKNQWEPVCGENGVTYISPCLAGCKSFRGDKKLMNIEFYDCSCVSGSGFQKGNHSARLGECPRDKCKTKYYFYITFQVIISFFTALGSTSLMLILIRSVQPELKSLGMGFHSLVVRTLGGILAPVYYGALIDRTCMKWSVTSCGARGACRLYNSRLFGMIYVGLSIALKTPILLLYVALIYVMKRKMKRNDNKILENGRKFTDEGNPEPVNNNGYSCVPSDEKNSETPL
Assay: Untargeted metabolomics of plasma from untreated wild-type and Oatp1b2(−/−) mice
Conditions: for Fold of Change KO/WT: plasma of untreated Oatp1b2-deficient (KO) vs wild-type (WT) mice, semi-quantitative, positive = higher in KO, n = 6 per group; for Mean value KO: plasma of untreated Oatp1b2-deficient mice; for Mean value KO / Mean value WT: raw area counts rescaled to median = 1; for Mean value WT: plasma of untreated wild-type mice
Protocol: For all experiments, age- and sex-matched mice (8–12 weeks old) were used. […] Mice with a deficiency of Oatp1b2 (Oatp1b2(−/−) mice), the single murine orthologue of OATP1B1 and OATP1B3 in humans, on a DBA/1LacJ background were kindly provided by Drs. Richard B. Kim (Western University, London, Ontario, Canada) and Jeffrey L. Stock (Pfizer, Groton, CT, USA).
Plasma samples from untreated wild-type mice and Oatp1b2(−/−) mice were analyzed for structurally named and unknown molecules using a non-targeted semi-quantitative liquid chromatography-tandem mass spectrometry (LC-MS/MS) and gas chromatography-mass spectrometry platforms (Metabolon, Durham, NC, USA). Compounds were identified by comparison with library entries of purified standards or recurrent unknown entities.

SMILES	Fold of Change KO/WT	Mean value KO	Mean value WT
CCCCCC=CCC=CCCCCCCCC(=O)OCC(O)COP(=O)(O)OCC(O)CO (stereo not drawn) [1-linoleoyl-GPG (18:2)]	3.71	1.96	.529
CCCCC/C=C\C/C=C\CCCCCCCC(=O)OC[C@@H](O)COP(=O)(O)OC1[C@H](O)[C@H](O)C(O)[C@H](O)[C@H]1O (stereo partly drawn) [1-linoleoyl-GPI (18:2)]	1.65	1.27	.765
CCCCC/C=C\C/C=C\C/C=C\C/C=C\CCCC(=O)O[C@H](COC(=O)CCCCCCC/C=C\CCCCCCCC)COP(=O)(O)OC1C(O)C(O)C(O)C(O)C1O (stereo partly drawn) [1-oleoyl-2-arachidonoyl-GPI (18:1/20:4)]	2.01	1.37	.681
CC/C=C\C/C=C\C/C=C\C/C=C\C/C=C\C/C=C\CCC(=O)O[C@H](COC(=O)CCCCCCC/C=C\CCCCCCCC)COP(=O)([O-])OCC[N+](C)(C)C [1-oleoyl-2-docosahexaenoyl-GPC (18:1/22:6)]	1.34	1.17	.874
CCCCCCCC/C=C\CCCCCCCC(=O)OC[C@@H](O)COP(=O)([O-])OCC[N+](C)(C)C [1-oleoyl-GPC (18:1)]	1.78	1.30	.732
CCCCCCCC/C=C\CCCCCCCC(=O)OC[C@@H](O)COP(=O)(O)OCCN [1-oleoyl-GPE (18:1)]	2.05	1.30	.634
CCCCCCCC/C=C\CCCCCCCC(=O)OCC(O)COP(=O)(O)OCC(O)CO (stereo not drawn) [1-oleoyl-GPG (18:1)]	8.19	1.80	.219
CCCCCCCC/C=C\CCCCCCCC(=O)OC[C@@H](O)COP(=O)(O)OC1[C@H](O)[C@H](O)C(O)[C@H](O)[C@H]1O (stereo partly drawn) [1-oleoyl-GPI (18:1)]	1.87	1.36	.729
CC/C=C\C/C=C\C/C=C\CCCCCCCC(=O)O[C@H](COC(=O)CCCCCCC/C=C\CCCCCC)COP(=O)([O-])OCC[N+](C)(C)C [1-palmitoleoyl-2-linolenoyl-GPC (16:1/18:3)]	1.86	1.46	.784
CCCCCC/C=C\CCCCCCCC(=O)OC[C@@H](O)COP(=O)([O-])OCC[N+](C)(C)C [1-palmitoleoyl-GPC (16:1)]	1.97	1.31	.666
CCCCCCCC/C=C\CCCCCCCC(=O)O[C@H](COC(=O)CCCCCCCCCCCCCCC)COP(=O)([O-])OCC[N+](C)(C)C [1-palmitoyl-2-oleoyl-GPC (16:0/18:1)]	1.30	1.08	.834
CCCCCCCC/C=C\CCCCCCCC(=O)O[C@H](COC(=O)CCCCCCCCCCCCCCC)COP(=O)(O)OCCN [1-palmitoyl-2-oleoyl-GPE (16:0/18:1)]	1.46	1.24	.847
CCCCCCCCCCCCCCCCCC(=O)O[C@H](COC(=O)CCCCCCCCCCCCCCC)COP(=O)([O-])OCC[N+](C)(C)C [1-palmitoyl-2-stearoyl-GPC (16:0/18:0)]	1.14	1.09	.960
